# System: human patients suffering from osteoarthritis
# Experiment: Clinical study in osteoarthritis patients: patient-recorded adverse side effects
# Type: in vivo
# Conditions: 4 weeks
# From the text: Four groups of patients were selected and each group was given one or other of the following medications over a four week period:
# All patients were aged from 45-80 and had been suffering from chronic knee pain due to osteoarthritis for at least 6 months. Patients went through a washout period of their existing osteoarthritis treatments. […] At the beginning of the study, and also at conclusion of each subsequent week, patients were required to visit a physician and complete a WOMAC questionnaire and a Global Pain Rating Assessment.
# In terms of adverse side effects patients were asked to keep a record of these, if any.
smiles,measurement,setting,value
"CC(C)Cc1ccc(C(C)C(=O)O)cc1 (centres unmarked) [Ibuprofen, ibuprofen]",adverse side effects recorded,"Ibuprofen High group: 2 × 300 mg ibuprofen tablets four times daily, 2,400 mg per day, both related to gastric discomfort",two probable adverse effects
same,adverse side effects recorded,"Ibuprofen Low group: 2 × 150 mg ibuprofen tablets four times daily, 1,200 mg per day",no confirmed or probable adverse side effects

# From patent US20110166234A1, “MEDICINAL PRODUCT AND TREATMENT” (priority 2008, published 2011)
